Holding throughout (test): Kinase inhibitor specificity profiling (Reaction Biology Corporation)
Common to all, as to format: biochemical
Design in all cases: % Enzyme Activity (relative to DMSO controls): concentration or dose not given beside the values

For experiment [1], the target named is T1, panel of 370 protein kinases (Homo sapiens, UniProt Q9UEE5).
T1 construct: purchased Reaction Biology Corporation (assay service)
Particulars: 2 h, kinase DRAK1/STK17A; read-out: % Enzyme Activity (relative to DMSO controls).

Experiment [2] addresses T2, panel of 370 protein kinases (Homo sapiens, UniProt P14616).
T2 construct: purchased Reaction Biology Corporation (assay service)
Particulars: 2 h, kinase IRR/INSRR; read-out: % Enzyme Activity (relative to DMSO controls).

Experiment [3] concerns the target T3, panel of 370 protein kinases (Homo sapiens, UniProt Q9Y6E0).
T3 construct: purchased Reaction Biology Corporation (assay service)
Particulars: kinase MST3/STK24.

Experiment [4] deals with T4, panel of 370 protein kinases (Homo sapiens, UniProt Q13555).
T4 construct: purchased Reaction Biology Corporation (assay service)
Particulars: 2 h, kinase CAMK2g; read-out: % Enzyme Activity (relative to DMSO controls).

Experiment [5] deals with T5, panel of 370 protein kinases (Homo sapiens, UniProt P36896).
T5 construct: purchased Reaction Biology Corporation (assay service)
Particulars: 2 h, kinase ALK4/ACVR1B; read-out: % Enzyme Activity (relative to DMSO controls).

Experiment [6] deals with T6, panel of 370 protein kinases (Homo sapiens, UniProt Q05397).
T6 construct: purchased Reaction Biology Corporation (assay service)
The conditions noted are these: 2 h, kinase FAK/PTK2; read-out: % Enzyme Activity (relative to DMSO controls).

Experiment [7] deals with T7, panel of 370 protein kinases (Homo sapiens, UniProt P07948).
T7 construct: purchased Reaction Biology Corporation (assay service)
Particulars: 2 h, kinase LYN; read-out: % Enzyme Activity (relative to DMSO controls).

The target in experiment [8] is T8, panel of 370 protein kinases (Homo sapiens, UniProt Q13464).
T8 construct: purchased Reaction Biology Corporation (assay service)
The conditions noted are these: 2 h, kinase ROCK1; read-out: % Enzyme Activity (relative to DMSO controls).

Experiment [9] addresses T9, panel of 370 protein kinases (Homo sapiens, UniProt Q07912).
T9 construct: purchased Reaction Biology Corporation (assay service)
The conditions noted are these: 2 h, kinase ACK1; read-out: % Enzyme Activity (relative to DMSO controls).

The target of experiment [10] is T10, panel of 370 protein kinases (Homo sapiens, UniProt O15146).
T10 construct: purchased Reaction Biology Corporation (assay service)
The conditions noted are these: 2 h, kinase MUSK; read-out: % Enzyme Activity (relative to DMSO controls).

Experiment [11] concerns the target T11, panel of 370 protein kinases (Homo sapiens, UniProt Q9NQU5).
T11 construct: purchased Reaction Biology Corporation (assay service)
Particulars: 2 h, kinase PAK6; read-out: % Enzyme Activity (relative to DMSO controls).

Experiment [12] concerns the target T12, panel of 370 protein kinases (Homo sapiens, UniProt Q8IVH8).
T12 construct: purchased Reaction Biology Corporation (assay service)
The conditions noted are these: kinase GLK/MAP4K3.

The target in experiment [13] is T13, panel of 370 protein kinases (Homo sapiens, UniProt Q9H2G2).
T13 construct: purchased Reaction Biology Corporation (assay service)
The conditions noted are these: 2 h, kinase SLK/STK2; read-out: % Enzyme Activity (relative to DMSO controls).

Experiment [14] addresses T14, panel of 370 protein kinases (Homo sapiens, UniProt Q00535).
T14 construct: purchased Reaction Biology Corporation (assay service)
The conditions noted are these: 2 h, read-out: % Enzyme Activity (relative to DMSO controls).

The target in experiment [15] is T15, panel of 370 protein kinases (Homo sapiens, UniProt Q8IU85).
T15 construct: purchased Reaction Biology Corporation (assay service)
The conditions noted are these: 2 h, kinase CAMK1d; read-out: % Enzyme Activity (relative to DMSO controls).

Experiment [16] deals with T16, panel of 370 protein kinases (Homo sapiens, UniProt Q8TD19).
T16 construct: purchased Reaction Biology Corporation (assay service)
The conditions noted are these: 2 h, kinase NEK9; read-out: % Enzyme Activity (relative to DMSO controls).

For experiment [17], the target named is T17, panel of 370 protein kinases (Homo sapiens, UniProt Q8TDC3).
T17 construct: purchased Reaction Biology Corporation (assay service)
The conditions noted are these: 2 h, kinase BRSK1; read-out: % Enzyme Activity (relative to DMSO controls).

Experiment [18] addresses T18, panel of 370 protein kinases (Homo sapiens, UniProt P51451).
T18 construct: purchased Reaction Biology Corporation (assay service)
The conditions noted are these: 2 h, kinase BLK; read-out: % Enzyme Activity (relative to DMSO controls).

Experiment [19] has as its target T19, panel of 370 protein kinases (Homo sapiens, UniProt Q8N752).
T19 construct: purchased Reaction Biology Corporation (assay service)
Particulars: 2 h, kinase CK1a1L; read-out: % Enzyme Activity (relative to DMSO controls).

For experiment [20], the target named is T20, panel of 370 protein kinases (Homo sapiens, UniProt P43405).
T20 construct: purchased Reaction Biology Corporation (assay service)
Particulars: kinase SYK.

The target in experiment [21] is T21, panel of 370 protein kinases (Homo sapiens, UniProt P20794).
T21 construct: purchased Reaction Biology Corporation (assay service)
Particulars: 2 h, kinase MAK; read-out: % Enzyme Activity (relative to DMSO controls).

Several values for one entry are separate records, joined by “and”; a condition that tells them apart may be missing. Equal values may be shown once. Read-outs that look alike come from different tables or passages of the source.

T14 sequence (Q00535 whole entry): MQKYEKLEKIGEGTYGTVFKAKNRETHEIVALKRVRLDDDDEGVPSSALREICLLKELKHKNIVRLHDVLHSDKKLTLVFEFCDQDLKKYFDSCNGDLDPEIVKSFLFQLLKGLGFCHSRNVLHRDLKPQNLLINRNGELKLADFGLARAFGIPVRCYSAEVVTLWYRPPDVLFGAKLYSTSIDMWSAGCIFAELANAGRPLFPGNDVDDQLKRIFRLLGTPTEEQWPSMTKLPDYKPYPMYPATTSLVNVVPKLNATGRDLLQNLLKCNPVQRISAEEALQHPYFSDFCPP
T12 sequence (Q8IVH8 whole entry): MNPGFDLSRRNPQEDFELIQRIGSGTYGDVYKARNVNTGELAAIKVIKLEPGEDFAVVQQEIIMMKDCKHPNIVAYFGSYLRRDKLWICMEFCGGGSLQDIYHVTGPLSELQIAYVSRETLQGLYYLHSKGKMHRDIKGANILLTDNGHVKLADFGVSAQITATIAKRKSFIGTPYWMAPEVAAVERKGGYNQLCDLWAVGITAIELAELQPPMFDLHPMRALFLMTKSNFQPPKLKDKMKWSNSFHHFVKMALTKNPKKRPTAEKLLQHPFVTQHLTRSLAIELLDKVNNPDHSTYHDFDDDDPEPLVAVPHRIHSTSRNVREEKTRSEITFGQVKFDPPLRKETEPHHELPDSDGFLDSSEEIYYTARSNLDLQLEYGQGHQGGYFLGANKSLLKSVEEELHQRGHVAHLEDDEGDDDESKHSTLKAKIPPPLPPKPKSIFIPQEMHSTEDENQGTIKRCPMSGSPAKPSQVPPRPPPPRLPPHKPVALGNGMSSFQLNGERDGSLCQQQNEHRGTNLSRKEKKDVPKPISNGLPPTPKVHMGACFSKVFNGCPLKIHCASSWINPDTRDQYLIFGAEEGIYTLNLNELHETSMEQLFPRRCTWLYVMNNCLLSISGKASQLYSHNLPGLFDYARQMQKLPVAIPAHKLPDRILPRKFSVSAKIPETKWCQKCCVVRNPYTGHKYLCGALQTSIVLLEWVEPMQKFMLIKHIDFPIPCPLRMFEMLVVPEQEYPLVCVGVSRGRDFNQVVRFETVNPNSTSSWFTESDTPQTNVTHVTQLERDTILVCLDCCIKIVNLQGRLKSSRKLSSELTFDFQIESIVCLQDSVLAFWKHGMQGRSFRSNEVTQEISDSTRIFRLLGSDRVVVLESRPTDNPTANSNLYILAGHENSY
T3 sequence (Q9Y6E0 whole entry): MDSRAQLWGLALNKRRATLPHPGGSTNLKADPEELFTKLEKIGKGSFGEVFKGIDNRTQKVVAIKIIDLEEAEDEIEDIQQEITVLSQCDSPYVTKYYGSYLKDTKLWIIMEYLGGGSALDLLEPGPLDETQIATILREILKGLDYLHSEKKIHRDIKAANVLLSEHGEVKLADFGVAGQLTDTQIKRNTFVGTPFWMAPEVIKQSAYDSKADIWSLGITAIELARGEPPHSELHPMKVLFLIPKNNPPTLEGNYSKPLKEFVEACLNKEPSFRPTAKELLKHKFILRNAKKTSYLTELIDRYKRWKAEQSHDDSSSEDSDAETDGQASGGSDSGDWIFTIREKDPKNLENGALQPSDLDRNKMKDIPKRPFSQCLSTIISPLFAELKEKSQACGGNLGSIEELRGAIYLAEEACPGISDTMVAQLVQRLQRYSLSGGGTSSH
T2 sequence (P14616 27-1297): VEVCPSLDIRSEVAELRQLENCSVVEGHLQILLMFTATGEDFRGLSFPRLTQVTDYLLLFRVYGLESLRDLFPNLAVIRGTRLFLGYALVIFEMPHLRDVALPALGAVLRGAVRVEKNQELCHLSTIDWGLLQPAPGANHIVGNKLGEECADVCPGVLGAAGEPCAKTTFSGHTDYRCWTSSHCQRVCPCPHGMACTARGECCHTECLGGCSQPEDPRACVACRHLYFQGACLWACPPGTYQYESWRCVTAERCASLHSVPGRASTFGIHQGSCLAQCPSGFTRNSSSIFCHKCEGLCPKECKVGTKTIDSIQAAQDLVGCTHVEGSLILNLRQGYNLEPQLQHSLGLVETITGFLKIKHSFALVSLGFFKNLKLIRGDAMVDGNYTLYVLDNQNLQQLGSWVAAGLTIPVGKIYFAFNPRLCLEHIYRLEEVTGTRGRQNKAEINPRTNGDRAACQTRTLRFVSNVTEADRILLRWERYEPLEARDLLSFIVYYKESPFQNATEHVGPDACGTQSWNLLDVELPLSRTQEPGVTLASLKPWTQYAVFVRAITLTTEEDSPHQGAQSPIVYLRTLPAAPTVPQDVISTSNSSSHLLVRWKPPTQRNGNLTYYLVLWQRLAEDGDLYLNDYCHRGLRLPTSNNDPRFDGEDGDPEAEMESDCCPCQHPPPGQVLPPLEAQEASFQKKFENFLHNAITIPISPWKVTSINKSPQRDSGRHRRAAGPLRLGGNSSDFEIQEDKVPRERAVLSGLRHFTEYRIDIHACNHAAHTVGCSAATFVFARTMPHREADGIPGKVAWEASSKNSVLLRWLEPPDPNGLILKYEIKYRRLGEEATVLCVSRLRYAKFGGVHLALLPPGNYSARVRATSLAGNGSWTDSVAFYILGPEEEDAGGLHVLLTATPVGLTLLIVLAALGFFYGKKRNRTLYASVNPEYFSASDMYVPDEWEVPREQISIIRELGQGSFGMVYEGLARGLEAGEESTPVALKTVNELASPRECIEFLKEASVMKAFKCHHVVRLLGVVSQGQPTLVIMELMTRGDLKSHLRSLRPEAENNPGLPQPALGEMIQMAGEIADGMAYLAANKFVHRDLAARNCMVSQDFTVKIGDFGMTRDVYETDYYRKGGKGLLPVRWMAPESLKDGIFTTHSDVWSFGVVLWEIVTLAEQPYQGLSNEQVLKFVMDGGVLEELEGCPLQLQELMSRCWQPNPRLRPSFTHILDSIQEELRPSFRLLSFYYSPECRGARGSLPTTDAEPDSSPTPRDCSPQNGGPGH
T19 sequence (Q8N752 whole entry): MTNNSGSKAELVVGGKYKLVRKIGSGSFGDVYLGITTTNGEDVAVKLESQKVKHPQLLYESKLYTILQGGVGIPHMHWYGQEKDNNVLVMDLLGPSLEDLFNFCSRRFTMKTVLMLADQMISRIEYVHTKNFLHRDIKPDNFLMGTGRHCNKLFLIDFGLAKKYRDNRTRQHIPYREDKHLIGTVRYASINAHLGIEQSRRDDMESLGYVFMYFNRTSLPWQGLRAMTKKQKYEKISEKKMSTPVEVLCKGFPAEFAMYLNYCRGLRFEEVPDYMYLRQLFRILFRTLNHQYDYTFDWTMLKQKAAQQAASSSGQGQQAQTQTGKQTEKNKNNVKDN
T10 sequence (O15146 24-869): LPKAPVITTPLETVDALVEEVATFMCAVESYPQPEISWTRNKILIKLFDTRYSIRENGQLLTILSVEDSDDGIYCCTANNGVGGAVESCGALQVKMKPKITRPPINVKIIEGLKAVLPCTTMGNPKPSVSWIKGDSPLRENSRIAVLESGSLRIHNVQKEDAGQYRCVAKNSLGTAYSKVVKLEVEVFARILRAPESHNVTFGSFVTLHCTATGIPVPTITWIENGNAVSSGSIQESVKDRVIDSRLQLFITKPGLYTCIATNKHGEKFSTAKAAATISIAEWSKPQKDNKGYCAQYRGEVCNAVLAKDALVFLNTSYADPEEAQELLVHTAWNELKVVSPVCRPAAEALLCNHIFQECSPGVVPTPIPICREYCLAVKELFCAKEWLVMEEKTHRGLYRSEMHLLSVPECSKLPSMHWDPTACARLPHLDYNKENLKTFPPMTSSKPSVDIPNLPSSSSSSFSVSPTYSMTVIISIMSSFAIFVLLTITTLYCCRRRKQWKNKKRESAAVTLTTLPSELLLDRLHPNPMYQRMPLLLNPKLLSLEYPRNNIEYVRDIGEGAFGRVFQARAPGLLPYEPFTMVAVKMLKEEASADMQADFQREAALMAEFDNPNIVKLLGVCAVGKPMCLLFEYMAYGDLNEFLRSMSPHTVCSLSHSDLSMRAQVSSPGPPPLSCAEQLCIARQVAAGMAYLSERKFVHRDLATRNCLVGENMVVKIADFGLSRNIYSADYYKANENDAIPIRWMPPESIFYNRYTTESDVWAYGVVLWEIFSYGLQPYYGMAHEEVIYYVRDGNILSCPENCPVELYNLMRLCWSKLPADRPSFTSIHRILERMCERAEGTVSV
T11 sequence (Q9NQU5 whole entry): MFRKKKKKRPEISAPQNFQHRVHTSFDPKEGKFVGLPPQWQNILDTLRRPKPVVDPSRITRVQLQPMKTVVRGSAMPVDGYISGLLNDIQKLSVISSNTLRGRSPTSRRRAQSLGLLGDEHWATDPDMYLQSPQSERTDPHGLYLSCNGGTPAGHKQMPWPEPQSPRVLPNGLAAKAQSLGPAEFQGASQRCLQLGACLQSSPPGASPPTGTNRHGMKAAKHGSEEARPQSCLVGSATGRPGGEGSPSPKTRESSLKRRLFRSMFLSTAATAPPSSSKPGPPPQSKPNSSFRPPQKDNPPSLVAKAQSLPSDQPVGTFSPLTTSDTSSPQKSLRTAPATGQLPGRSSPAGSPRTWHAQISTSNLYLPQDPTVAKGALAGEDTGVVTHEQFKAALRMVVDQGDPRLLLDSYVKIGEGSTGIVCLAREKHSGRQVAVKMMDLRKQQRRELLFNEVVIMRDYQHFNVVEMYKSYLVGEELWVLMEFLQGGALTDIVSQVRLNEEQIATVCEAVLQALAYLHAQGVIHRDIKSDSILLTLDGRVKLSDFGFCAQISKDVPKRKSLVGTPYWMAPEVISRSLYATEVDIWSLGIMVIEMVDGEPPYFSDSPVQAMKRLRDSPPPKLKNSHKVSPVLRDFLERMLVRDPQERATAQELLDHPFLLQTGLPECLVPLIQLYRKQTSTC

In the case of `CCN1CCN(C(=O)c2ccc(Nc3ncc(F)c(-c4ccc5nc(N(C)C)sc5c4)n3)nc2)CC1` [YK-2-69], the remaining activity at 1 µM in experiment [1] was determined as 59%; in experiment [2], 91.8%; in experiment [4] it was 86%; in experiment [5], 102%; in experiment [6], 95.9%; in experiment [7], 93.9%. Moreover, the remaining activity at 1 µM in [8] turned out to be 92.8%; in [9], 101%; in [10], 89.2%; in [11], 105%; in experiment [13] it was 94.5%; in experiment [14] (kinase CDK5/P25) it was 92.2%. Moreover, the remaining activity at 1 µM stood at 90% in experiment [14] (kinase CDK5/p35); 84.3% in [15]; 105% in experiment [16]; 94% in experiment [17]; 100% in experiment [18]; 103% in experiment [19]. Also, the remaining activity at 1 µM in [21] was 71.7%. Moreover, the “% Enzyme Activity (relative to DMSO controls)” value in experiment [3] is 107.35% and 104.50%; in [12] it was 96.94% and 93.55%; in experiment [20], 98.88% and 95.73%.

(Values after PMC9133015 (Nature Communications, 2022).)
